Calls of active or inactive are those of the source. No cut-off for these calls is given here.
Assays:
[1] = target: Proto-oncogene tyrosine-protein kinase Src (Homo sapiens) (UniProt P12931); assay: Inhibition of SRC at 50 uM after 1 hr
MCF7 = assay: cells; conditions: Homo sapiens, MCF7, 48 h
K562 [2] = assay: cells; conditions: Homo sapiens, K562, 48 h
[3] = target: Vascular endothelial growth factor receptor 2 (Homo sapiens) (UniProt P35968); assay: Inhibition of VEGFR2 at 50 uM after 1 hr
HepG2 = assay: cells; conditions: Homo sapiens, HepG2, 48 h
K562 [4] = assay: Ratio of imatinib IC50 to compound IC50 for human K562 cells after 48 hrs by MTT assay; type: functional
[5] = target: DNA topoisomerase 2-alpha (Homo sapiens) (UniProt P11388); assay: Inhibition of human topoisomerase 2 at 1 to 50 uM for 40 mins using ethidium bromide by decatenation assay
SK-MEL-28 = assay: Growth inhibition of SK-MEL-28 cells; conditions: Homo sapiens
[6] = Growth inhibition of A375M cells; conditions: Homo sapiens
Malme-3M = assay: cells; conditions: Homo sapiens
Description: Growth inhibition of MALME-3M cells

[7] = target: Proto-oncogene tyrosine-protein kinase Src (Homo sapiens) (UniProt P12931); assay: Inhibition of SRC in human K562 cells assessed as reduction in activated ERK1/2 levels at 10 uM by Western blot analysis; type: cell-based; conditions: TDE = time-dependent effect
[8] = target: Vascular endothelial growth factor receptor 2 (Homo sapiens) (UniProt P35968); assay: Inhibition of VEGFR2 in human K562 cells assessed as reduction in activated ERK1/2 levels at 10 uM by Western blot analysis; type: cell-based

Vascular endothelial growth factor receptor 2 (Homo sapiens), sequence (P35968 whole entry): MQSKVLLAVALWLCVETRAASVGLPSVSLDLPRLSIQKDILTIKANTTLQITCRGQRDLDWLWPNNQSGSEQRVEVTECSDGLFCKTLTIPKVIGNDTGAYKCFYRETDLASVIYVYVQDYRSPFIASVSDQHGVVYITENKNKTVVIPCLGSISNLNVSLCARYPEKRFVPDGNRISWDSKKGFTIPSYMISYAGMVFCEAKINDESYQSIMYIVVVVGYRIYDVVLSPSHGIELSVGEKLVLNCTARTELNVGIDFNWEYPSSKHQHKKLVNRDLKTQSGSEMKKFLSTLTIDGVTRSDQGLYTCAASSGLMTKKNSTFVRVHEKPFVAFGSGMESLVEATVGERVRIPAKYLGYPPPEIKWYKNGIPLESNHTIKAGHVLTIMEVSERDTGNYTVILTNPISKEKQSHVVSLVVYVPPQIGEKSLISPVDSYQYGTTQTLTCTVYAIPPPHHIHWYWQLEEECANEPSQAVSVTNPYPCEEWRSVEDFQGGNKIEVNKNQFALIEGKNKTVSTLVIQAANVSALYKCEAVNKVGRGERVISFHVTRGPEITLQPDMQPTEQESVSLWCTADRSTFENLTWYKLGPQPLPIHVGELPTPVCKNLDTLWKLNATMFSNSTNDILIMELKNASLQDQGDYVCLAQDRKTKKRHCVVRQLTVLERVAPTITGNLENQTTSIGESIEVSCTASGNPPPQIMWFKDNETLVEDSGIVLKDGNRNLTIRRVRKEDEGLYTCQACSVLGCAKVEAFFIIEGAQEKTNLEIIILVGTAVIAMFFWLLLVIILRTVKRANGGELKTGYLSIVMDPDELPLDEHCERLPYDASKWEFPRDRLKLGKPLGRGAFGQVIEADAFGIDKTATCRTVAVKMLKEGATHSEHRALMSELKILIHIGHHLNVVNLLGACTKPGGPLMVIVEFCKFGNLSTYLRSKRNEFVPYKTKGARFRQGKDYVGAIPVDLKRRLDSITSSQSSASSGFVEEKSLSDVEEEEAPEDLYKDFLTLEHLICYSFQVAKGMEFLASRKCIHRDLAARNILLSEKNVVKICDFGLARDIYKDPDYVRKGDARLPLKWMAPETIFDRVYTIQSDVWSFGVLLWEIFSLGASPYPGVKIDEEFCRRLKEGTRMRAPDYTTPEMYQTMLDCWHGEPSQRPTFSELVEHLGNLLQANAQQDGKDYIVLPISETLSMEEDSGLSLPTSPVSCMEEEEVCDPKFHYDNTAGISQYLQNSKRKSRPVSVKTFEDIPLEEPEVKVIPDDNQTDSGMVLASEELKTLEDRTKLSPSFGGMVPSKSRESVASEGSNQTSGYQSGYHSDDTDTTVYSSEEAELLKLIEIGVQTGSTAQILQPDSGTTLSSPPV
Proto-oncogene tyrosine-protein kinase Src (Homo sapiens), sequence (P12931 2-536 limits assumed): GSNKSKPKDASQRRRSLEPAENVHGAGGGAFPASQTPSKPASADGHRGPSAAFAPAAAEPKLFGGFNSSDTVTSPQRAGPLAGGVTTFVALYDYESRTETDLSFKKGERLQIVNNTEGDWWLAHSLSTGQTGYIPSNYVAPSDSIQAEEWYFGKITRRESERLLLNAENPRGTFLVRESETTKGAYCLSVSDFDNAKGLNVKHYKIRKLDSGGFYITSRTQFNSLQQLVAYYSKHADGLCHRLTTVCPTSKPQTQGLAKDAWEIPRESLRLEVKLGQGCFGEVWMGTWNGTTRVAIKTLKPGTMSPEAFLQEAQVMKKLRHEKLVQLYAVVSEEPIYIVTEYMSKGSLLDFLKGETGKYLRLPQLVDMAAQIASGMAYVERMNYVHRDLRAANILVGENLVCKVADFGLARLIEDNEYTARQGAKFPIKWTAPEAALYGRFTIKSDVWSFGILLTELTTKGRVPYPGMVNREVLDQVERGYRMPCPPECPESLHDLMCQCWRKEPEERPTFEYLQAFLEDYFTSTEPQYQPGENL
DNA topoisomerase 2-alpha (Homo sapiens), sequence (P11388 whole entry): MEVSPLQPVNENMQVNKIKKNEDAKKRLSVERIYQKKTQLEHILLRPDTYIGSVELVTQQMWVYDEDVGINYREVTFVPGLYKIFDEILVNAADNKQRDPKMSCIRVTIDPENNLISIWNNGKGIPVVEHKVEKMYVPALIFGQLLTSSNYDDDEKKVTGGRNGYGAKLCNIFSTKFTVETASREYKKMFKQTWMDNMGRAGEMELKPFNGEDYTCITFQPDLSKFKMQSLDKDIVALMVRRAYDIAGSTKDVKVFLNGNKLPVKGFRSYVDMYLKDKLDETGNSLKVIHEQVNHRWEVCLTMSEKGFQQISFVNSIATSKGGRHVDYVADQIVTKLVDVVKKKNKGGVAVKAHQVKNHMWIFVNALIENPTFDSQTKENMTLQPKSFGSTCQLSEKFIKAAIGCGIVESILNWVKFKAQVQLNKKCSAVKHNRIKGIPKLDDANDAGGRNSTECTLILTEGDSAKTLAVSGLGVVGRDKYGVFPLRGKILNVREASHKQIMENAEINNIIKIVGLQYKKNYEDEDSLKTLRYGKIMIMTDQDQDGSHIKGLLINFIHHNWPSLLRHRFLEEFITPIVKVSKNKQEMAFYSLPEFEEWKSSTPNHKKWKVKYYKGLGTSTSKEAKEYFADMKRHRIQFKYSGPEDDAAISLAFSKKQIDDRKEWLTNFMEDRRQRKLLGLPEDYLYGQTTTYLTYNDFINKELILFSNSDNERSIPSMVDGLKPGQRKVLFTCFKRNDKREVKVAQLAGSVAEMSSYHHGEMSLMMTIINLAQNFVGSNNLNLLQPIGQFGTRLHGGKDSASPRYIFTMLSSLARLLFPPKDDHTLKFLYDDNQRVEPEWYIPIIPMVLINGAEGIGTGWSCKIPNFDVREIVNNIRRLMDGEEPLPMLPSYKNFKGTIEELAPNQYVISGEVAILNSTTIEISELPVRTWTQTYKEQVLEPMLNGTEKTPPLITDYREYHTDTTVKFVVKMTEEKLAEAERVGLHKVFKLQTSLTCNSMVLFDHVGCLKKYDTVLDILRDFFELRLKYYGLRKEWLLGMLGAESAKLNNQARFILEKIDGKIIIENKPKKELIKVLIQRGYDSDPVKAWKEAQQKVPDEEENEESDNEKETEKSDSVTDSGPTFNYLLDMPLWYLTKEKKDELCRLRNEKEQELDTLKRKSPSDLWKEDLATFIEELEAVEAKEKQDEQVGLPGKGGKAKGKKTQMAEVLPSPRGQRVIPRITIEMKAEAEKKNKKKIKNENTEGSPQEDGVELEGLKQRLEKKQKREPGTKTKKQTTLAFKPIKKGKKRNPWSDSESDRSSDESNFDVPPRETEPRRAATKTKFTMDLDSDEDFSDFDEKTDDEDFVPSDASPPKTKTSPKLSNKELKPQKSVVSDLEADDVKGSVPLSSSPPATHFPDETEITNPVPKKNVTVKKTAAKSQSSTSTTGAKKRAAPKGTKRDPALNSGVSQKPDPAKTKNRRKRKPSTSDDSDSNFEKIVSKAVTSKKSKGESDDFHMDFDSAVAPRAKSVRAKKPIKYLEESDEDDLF

Row | Compound | IC50 (MCF7) [µM] | IC50 (K562 [2]) [µM] | IC50 (HepG2) [µM] | also measured
1 | COc1ccc2nc3cc(Cl)ccc3c(Nc3cccc(N)n3)c2c1 | 17.6 | 12 | 32.7 | inhibition [1]: 6.12%; inhibition [3]: 3.77%
2 | COc1ccc2nc3cc(Cl)ccc3c(Nc3ccncc3)c2c1 | > 50 | 7.3 | 4.1 | –
3 | COc1ccc2nc3cc(Cl)ccc3c(Nc3cc(OC)c(OC)c(OC)c3)c2c1 | > 50 | 31 | 16.8 | –
4 | COc1ccc2nc3cc(Cl)ccc3c(Nc3cccc(NC(C)=O)c3)c2c1 | > 50 | 21.3 | 36.8 | –
5 | COc1ccc2nc3cc(Cl)ccc3c(Nc3ccc(C(=O)O)c(O)c3)c2c1 | > 50 | 18.7 | > 50 | inhibition [1]: 2.8%; inhibition [3]: 5.4%; inhibition [5]: inactive
6 | COc1ccc2nc3cc(Cl)ccc3c(Nc3ccccc3F)c2c1 | > 50 | 13.5 | 46.1 | –
7 | COc1ccc2nc3cc(Cl)ccc3c(NCCN)c2c1 | 9.3 | 7 | 6 | –
8 | CCOc1ccccc1Nc1c2ccc(Cl)cc2nc2ccc(OC)cc12 | > 50 | 9 | 27.9 | –
9 | Cn1c(Nc2ccc(C(F)(F)F)cc2)nc2cc(Oc3ccnc(-c4ncc(C(F)(F)F)[nH]4)c3)ccc21 [RAF-265] | – | – | – | IC50 (SK-MEL-28): 0.14 µM; IC50 [6]: 0.14 µM; IC50 (Malme-3M): 0.14 µM
10 | COc1ccc2nc3cc(Cl)ccc3c(Nc3ccccc3Cl)c2c1 | > 50 | 23.8 | 30.2 | –
11 | CN[C@@H]1C[C@H]2O[C@@](C)([C@@H]1OC)n1c3ccccc3c3c4c(c5c6ccccc6n2c5c31)C(=O)NC4 | – | – | – | inhibition [1]: 99.4%
12 | COc1ccc2nc3cc(Cl)ccc3c(Nc3ccc(OC(F)(F)F)cc3)c2c1 | 18.9 | 9.7 | 10.2 | –
13 | COc1ccc2nc3cc(Cl)ccc3c(Nc3cccnc3N)c2c1 | 23.2 | 11.7 | 10.6 | –
14 | COc1ccc2nc3cc(Cl)ccc3c(Nc3ccc(N)cc3)c2c1 | 23.2 | 7.7 | 11 | –
15 | COc1ccc2nc3cc(Cl)ccc3c(Nc3ccc(C(F)(F)F)cc3)c2c1 | > 50 | 10.8 | > 50 | –
16 | COc1cc2c(c(OC)c1OC)-c1ccc(OC)c(=O)cc1[C@@H](NC(C)=O)CC2 [COLCHICINE] | 1.9 | – | 1.9 | –

The remaining molecules from weak to strong by IC50 (K562 [2]), led by results:

Row | IC50 (MCF7) [µM] | IC50 (K562 [2]) [µM] | IC50 (HepG2) [µM] | Compound | also measured
17 | 19.9 | 5.5 | 8.8 | COc1ccc2nc3cc(Cl)ccc3c(Nc3ccc(C)cc3)c2c1 | –
18 | 13.2 | 5.5 | 9.6 | COc1ccc2nc3cc(Cl)ccc3c(Nc3cccc(O)c3)c2c1 | –
19 | > 50 | 5.4 | > 50 | COc1ccc2nc3cc(Cl)ccc3c(Nc3ccccc3OC)c2c1 | –
20 | – | 5.4 | – | Cc1ccc(NC(=O)c2ccc(CN3CCN(C)CC3)cc2)cc1Nc1nccc(-c2cccnc2)n1 [IMATINIB] | –
21 | 23.8 | 5 | 4.2 | COc1ccc2nc3cc(Cl)ccc3c(NCc3ccccc3OC)c2c1 | inhibition [7]: tde; inhibition [1]: 8.02%; inhibition [8]: Active; inhibition [3]: 44%; inhibition [5]: inactive
22 | > 50 | 4.9 | 11.4 | COc1ccc2nc3cc(Cl)ccc3c(Nc3ccccc3O)c2c1 | –
23 | 41.6 | 3.2 | 7.4 | CCOc1ccc(Nc2c3ccc(Cl)cc3nc3ccc(OC)cc23)cc1 | –
24 | > 50 | 2.7 | 14.9 | COc1cccc(Nc2c3ccc(Cl)cc3nc3ccc(OC)cc23)c1 | –
25 | > 50 | 2.2 | 6.3 | COc1ccc(Nc2c3ccc(Cl)cc3nc3ccc(OC)cc23)cc1 | Ratio IC50 (K562 [4]): 2.5

From ChEMBL document CHEMBL1811850, “Exploration of acridine scaffold as a potentially interesting scaffold for discovering novel multi-target VEGFR-2 and Src kinase inhibitors” (Bioorg Med Chem, 2011)
